Counter-ions that a name gives are not always drawn.
Test: In Vitro Human Liver Microsomal (HLM) Stability Assay
Format: in vitro ADME
Conditions: vs non-isotopically enriched drug, 1 μM, 4 mg per mL liver microsome protein, 37° C.
Procedure: Liver microsomal stability assays are conducted at 4 mg per mL liver microsome protein with an NADPH-generating system in 2% NaHCO3 (2.2 mM NADPH, 25.6 mM glucose 6-phosphate, 6 units per mL glucose 6-phosphate dehydrogenase and 3.3 mM MgCl2). Test compounds are prepared as solutions in 20% acetonitrile-water and added to the assay mixture (final assay concentration 1 μM) and incubated at 37° C. Final concentration of acetonitrile in the assay should be <1%. Aliquots (50 μL) are taken out at times 0, 0.5, 1, 1.5, and 2 hours, and diluted with ice cold acetonitrile (200 μL) to stop the reactions. Samples are centrifuged at 12,000 RPM for 10 min to precipitate proteins. Supernatants are transferred to micro centrifuge tubes and stored for LC/MS/MS analysis of the degradation half-life of the test compounds.
Results of In Vitro Human Liver Microsomal (HLM) Stability Assay

[2H]O[C@@]1(c2c([2H])c([2H])c([2H])c(OC([2H])([2H])[2H])c2[2H])C([2H])([2H])C([2H])([2H])C([2H])([2H])C([2H])([2H])[C@@]1([2H])C([2H])([2H])N(C([2H])([2H])[2H])C([2H])([2H])[2H] [Example 1, d25-(−)-(1S,2S)-2-[(Dimethylamino)-methyll-1-(3-methoxyphenyl)-cyclohexanol)]
% increase of HLM degradation half-life 0%-50%: + (0%-50%)

[2H]O[C@]1(c2c([2H])c([2H])c([2H])c(OC([2H])([2H])[2H])c2[2H])C([2H])([2H])C([2H])([2H])C([2H])([2H])C([2H])([2H])[C@]1([2H])C([2H])([2H])N(C([2H])([2H])[2H])C([2H])([2H])[2H] [Example 2]
% increase of HLM degradation half-life −25%-0% (column −25%-0%): + (−25%-0%)

[2H]c1c([2H])c(O)c([2H])c([C@]2(O)C([2H])([2H])C([2H])([2H])C([2H])([2H])C([2H])([2H])[C@@]2([2H])C([2H])([2H])N(C([2H])([2H])[2H])C([2H])([2H])[2H])c1[2H] [Example 3]
% increase of HLM degradation half-life 0%-50%: + (0%-50%)

COc1cccc(C2(O)CCCCC2CN(C)C)c1 (stereo not drawn) [Example 5, 2-(Dimethylaminomethyl)-1-(3-methoxyphenyl)-cyclohexanol, reference compound]
% increase of HLM degradation half-life 50%-150%: + (50%-150%)

COc1cccc([C@@]2(O)CCCC[C@@H]2CN(C)C)c1 [Example 6, (1R, 2R)-2-(Dimethylaminomethyl)-1-(3-methoxyphenyl)-cyclohexanol hydrochloride, reference compound]
% increase of HLM degradation half-life 50%-150%: + (50%-150%)

[2H]C([2H])([2H])Oc1cccc(C2(O)CCCCC2CN(C)C)c1 (stereo not drawn) [Example 8, d3-2-(Dimethylaminomethyl)-1-(3-methoxyphenyl)-cyclohexanol]
% increase of HLM degradation half-life 0%-50%: + (0%-50%)

[2H]C([2H])([2H])Oc1cccc([C@@]2(O)CCCC[C@@H]2CN(C)C)c1 [Example 9, d3-(1R, 2R)-2-(Dimethylaminomethyl)-1-(3-methoxyphenyl)-cyclohexanol hydrochloride]
% increase of HLM degradation half-life 50%-150%: + (50%-150%)

[2H]C([2H])([2H])N(CC1CCCCC1(O)c1cccc(OC)c1)C([2H])([2H])[2H] (stereo not drawn) [Example 11]
% increase of HLM degradation half-life 50%-150%: + (50%-150%)

[2H]C([2H])([2H])N(C[C@H]1CCCC[C@]1(O)c1cccc(OC)c1)C([2H])([2H])[2H] [Example 12, d6-(1R,2R)-2-(Dimethylaminomethyl)-1-(3-methoxyphenyl)-cyclohexanol hydrochloride]
% increase of HLM degradation half-life >150% (column >150%): + (>150%)

From patent US20090028873A1, “SUBSTITUTED CYCLOHEXANOLS” (AUSPEX PHARMACEUTICALS, INC., priority 2007, published 2009)
